Read-outs that look alike come from different tables or passages of the source.
Legend:
[1] = target: Human serotonin 5-HT6 receptor (Homo sapiens, UniProt P50406); assay: [3H]LSD binding assay on cloned 5-HT6 receptor
[2] = IC50 (nM), binding affinity to the 5-HT6 receptor, Table 2, 1.87 nM [3H]LSD, cloned human receptor membranes from Sf21 cells, 37° C. 60 min

Chain of Human serotonin 5-HT6 receptor (P50406 whole entry): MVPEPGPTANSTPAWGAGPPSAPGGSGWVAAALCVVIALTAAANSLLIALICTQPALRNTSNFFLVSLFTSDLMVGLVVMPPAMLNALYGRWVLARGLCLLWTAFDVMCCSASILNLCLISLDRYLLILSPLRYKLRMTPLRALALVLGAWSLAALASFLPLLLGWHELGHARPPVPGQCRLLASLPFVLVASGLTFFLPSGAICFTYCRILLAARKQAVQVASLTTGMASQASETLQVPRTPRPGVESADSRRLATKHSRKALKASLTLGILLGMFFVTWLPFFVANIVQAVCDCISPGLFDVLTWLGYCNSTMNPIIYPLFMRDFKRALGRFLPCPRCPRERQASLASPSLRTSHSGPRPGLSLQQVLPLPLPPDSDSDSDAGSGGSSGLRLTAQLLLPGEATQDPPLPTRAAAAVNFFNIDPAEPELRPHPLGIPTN

SMILES	IC50 [1, 2]	melting point	IC50 [1]
CN1CCN(c2cc(Cl)cc3c2S(=O)(=O)N(Cc2ccc(F)cc2)C(=O)N3Cc2ccccc2)CC1 [Example 4, 4-Benzyl-6-chloro-2-(4-fluoro-benzyl)-8-(4-methyl-piperazin-1-yl)-1,1-dioxo-1,4-dihydro-2H-1λ^6-benzo[1,2,4]thiadiazin-3-one]	5.4 nM	112 to 113 °C	
CN1CCN(c2cc(Cl)cc3c2S(=O)(=O)N(Cc2cccc(Cl)c2)C(=O)N3Cc2ccccc2)CC1 [Example 6, 4-Benzyl-6-chloro-2-(3-chloro-benzyl)-8-(4-methyl-piperazin-1-yl)-1,1-dioxo-1,4-dihydro-2H-1λ^6-benzo[1,2,4]thiadiazin-3-one]	5.2 nM	87 to 88 °C	
CN1CCN(c2cc(Cl)cc3c2S(=O)(=O)N(Cc2ccccc2Br)C(=O)N3Cc2ccccc2)CC1 [Example 8, 4-Benzyl-2-(2-bromo-benzyl)-6-chloro-8-(4-methyl-piperazin-1-yl)-1,1-dioxo-1,4-dihydro-2H-1λ^6-benzo[1,2,4]thiadiazin-3-one]	8.9 nM	107 to 109 °C	
CN1CCN(c2cc(Cl)cc3c2S(=O)(=O)N(Cc2cccc(Br)c2)C(=O)N3Cc2ccccc2)CC1 [Example 9, 4-Benzyl-2-(3-bromo-benzyl)-6-chloro-8-(4-methyl-piperazin-1-yl)-1,1-dioxo-1,4-dihydro-2H-1λ^6-benzo[1,2,4]thiadiazin-3-one]	2.2 nM	96 to 98 °C	
CN1CCN(c2cc(Cl)cc3c2S(=O)(=O)N(Cc2ccc(Br)cc2)C(=O)N3Cc2ccccc2)CC1 [Example 10, 4-Benzyl-2-(4-bromo-benzyl)-6-chloro-8-(4-methyl-piperazin-1-yl)-1,1-dioxo-1,4-dihydro-2H-1λ^6-benzo[1,2,4]thiadiazin-3-one]	6.1 nM	115 to 116 °C	
CN1CCN(c2cc(Cl)cc3c2S(=O)(=O)N(Cc2cccc(I)c2)C(=O)N3Cc2ccccc2)CC1 [Example 11, 4-Benzyl-6-chloro-2-(3-iodo-benzyl)-8-(4-methyl-piperazin-1-yl)-1,1-dioxo-1,4-dihydro-2H-1λ^6-benzo[1,2,4]thiadiazin-3-one]	4.4 nM	96 to 98 °C	
CN1CCN(c2cc(Cl)cc3c2S(=O)(=O)N(Cc2ccc(I)cc2)C(=O)N3Cc2ccccc2)CC1 [Example 12, 4-Benzyl-6-chloro-2-(4-iodo-benzyl)-8-(4-methyl-piperazin-1-yl)-1,1-dioxo-1,4-dihydro-2H-1λ^6-benzo[1,2,4]thiadiazin-3-one]	1.4 nM	110 to 111 °C	
Cc1ccccc1CN1C(=O)N(Cc2ccccc2)c2cc(Cl)cc(N3CCN(C)CC3)c2S1(=O)=O [Example 13, 4-Benzyl-6-chloro-2-(2-methyl-benzyl)-8-(4-methyl-piperazin-1-yl)-1,1-dioxo-1,4-dihydro-2H-1λ^6-benzo[1,2,4]thiadiazin-3-one]	1.6 nM	148 to 150 °C	
Cc1cccc(CN2C(=O)N(Cc3ccccc3)c3cc(Cl)cc(N4CCN(C)CC4)c3S2(=O)=O)c1 [Example 14, 4-Benzyl-6-chloro-2-(3-methyl-benzyl)-8-(4-methyl-piperazin-1-yl)-1,1-dioxo-1,4-dihydro-2H-1λ^6-benzo[1,2,4]thiadiazin-3-one]	11.6 nM	188 to 191 °C	
Cc1ccc(CN2C(=O)N(Cc3ccccc3)c3cc(Cl)cc(N4CCN(C)CC4)c3S2(=O)=O)cc1 [Example 15, 4-Benzyl-6-chloro-2-(4-methyl-benzyl)-8-(4-methyl-piperazin-1-yl)-1,1-dioxo-1,4-dihydro-2H-1λ^6-benzo[1,2,4]thiadiazin-3-one]	5.4 nM	180 to 185 °C	
COc1ccccc1CN1C(=O)N(Cc2ccccc2)c2cc(Cl)cc(N3CCN(C)CC3)c2S1(=O)=O [Example 16, 4-Benzyl-6-chloro-2-(2-methoxy-benzyl)-8-(4-methyl-piperazin-1-yl)-1,1-dioxo-1,4-dihydro-2H-1λ^6-benzo[1,2,4]thiadiazin-3-one]	4.6 nM	93 to 94 °C	
CN1CCN(c2cc(Cl)cc3c2S(=O)(=O)N(Cc2ccccc2[N+](=O)[O-])C(=O)N3Cc2ccccc2)CC1 [Example 20, 4-Benzyl-6-chloro-8-(4-methyl-piperazin-1-yl)-2-(2-nitro-benzyl)-1,1-dioxo-1,4-dihydro-2H-1λ^6-benzo[1,2,4]thiadiazin-3-one]	12.3 nM	84 to 86 °C	
CN1CCN(c2cc(Cl)cc3c2S(=O)(=O)N(Cc2cccc([N+](=O)[O-])c2)C(=O)N3Cc2ccccc2)CC1 [Example 21, 4-Benzyl-6-chloro-8-(4-methyl-piperazin-1-yl)-2-(3-nitro-benzyl)-1,1-dioxo-1,4-dihydro-2H-1λ^6-benzo[1,2,4]thiadiazin-3-one]	4.2 nM	172 to 175 °C	
CN1CCN(c2cc(Cl)cc3c2S(=O)(=O)N(Cc2ccc([N+](=O)[O-])cc2)C(=O)N3Cc2ccccc2)CC1 [Example 22, 4-Benzyl-6-chloro-8-(4-methyl-piperazin-1-yl)-2-(4-nitro-benzyl)-1,1-dioxo-1,4-dihydro-2H-1λ^6-benzo[1,2,4]thiadiazin-3-one]	8.1 nM	163 to 164 °C	
COC(=O)c1ccc(CN2C(=O)N(Cc3ccccc3)c3cc(Cl)cc(N4CCN(C)CC4)c3S2(=O)=O)cc1 [Example 23, 4-[4-Benzyl-6-chloro-8-(4-methyl-piperazin-1-yl)-1,1,3-trioxo-3,4-dihydro-1H-1λ^6-benzo[1,2,4]thiadiazin-2-ylmethyl]-benzoic acid methyl ester]	28.8 nM	140 to 143 °C	
CN1CCN(c2cc(Cl)cc3c2S(=O)(=O)N(Cc2ccc(C#N)cc2)C(=O)N3Cc2ccccc2)CC1 [Example 24, 4-[4-Benzyl-6-chloro-8-(4-methyl-piperazin-1-yl)-1,1,3-trioxo-3,4-dihydro-2H-1λ^6-benzo[1,2,4]thiadiazin-2-ylmethyl]-benzonitrile]	6.4 nM	134 to 135 °C	
COc1ccccc1N1C(=O)N(Cc2ccccc2)c2cc(Cl)cc(N3CCN(C)CC3)c2S1(=O)=O [Example 28, 4-Benzyl-6-chloro-2-(2-methoxy-phenyl)-8-(4-methyl-piperazin-1-yl)-1,1-dioxo-1,4-dihydro-2H-1λ^6-benzo[1,2,4]thiadiazin-3-one]	7.1 nM	119 to 120 °C	
COc1cccc(N2C(=O)N(Cc3ccccc3)c3cc(Cl)cc(N4CCN(C)CC4)c3S2(=O)=O)c1 [Example 29, 4-Benzyl-6-chloro-2-(3-methoxy-phenyl)-8-(4-methyl-piperazin-1-yl)-1,1-dioxo-1,4-dihydro-2H-1λ^6-benzo[1,2,4]thiadiazin-3-one]	1.7 nM	191 to 193 °C	
COc1ccc(N2C(=O)N(Cc3ccccc3)c3cc(Cl)cc(N4CCN(C)CC4)c3S2(=O)=O)cc1 [Example 30, 4-Benzyl-6-chloro-2-(4-methoxy-phenyl)-8-(4-methyl-piperazin-1-yl)-1,1-dioxo-1,4-dihydro-2H-1λ^6-benzo[1,2,4]thiadiazin-3-one]	5.2 nM	115 to 116 °C	
CN1CCN(c2cc(Cl)cc3c2S(=O)(=O)N(C)C(=O)N3C)CC1 [Example 31, 6-Chloro-2,4-dimethyl-8-(4-methyl-piperazin-1-yl)-1,1-dioxo-1,4-dihydro-2H-1λ^6-benzo[1,2,4]thiadiazin-3-one]			745 nM
CN1CCN(c2cc(Cl)cc3c2S(=O)(=O)N(C)C(=O)N3Cc2ccccc2)CC1 [Example 32, 4-Benzyl-6-chloro-2-methyl-8-(4-methyl-piperazin-1-yl)-1,1-dioxo-1,4-dihydro-2H-1λ^6-benzo[1,2,4]thiadiazin-3-one]	4.2 nM		
CCCCN1C(=O)N(Cc2ccccc2)c2cc(Cl)cc(N3CCN(C)CC3)c2S1(=O)=O [Example 35, 4-Benzyl-2-butyl-6-chloro-8-(4-methyl-piperazin-1-yl)-1,1-dioxo-1,4-dihydro-2H-1λ^6-benzo[1,2,4]thiadiazin-3-one]	1.9 nM	116 to 118 °C	
CN1CCN(c2cc(Cl)cc3c2S(=O)(=O)N(CC2CCCCC2)C(=O)N3Cc2ccccc2)CC1 [Example 36, 4-Benzyl-6-chloro-2-cyclohexylmethyl-8-(4-methyl-piperazin-1-yl)-1,1-dioxo-1,4-dihydro-2H-1λ^6-benzo[1,2,4]thiadiazin-3-one]	1.5 nM	155 to 158 °C	
CCCCCCCCCCN1C(=O)N(Cc2ccccc2)c2cc(Cl)cc(N3CCN(C)CC3)c2S1(=O)=O [Example 40, 4-Benzyl-6-chloro-2-decyl-8-(4-methyl-piperazin-1-yl)-1,1-dioxo-1,4-dihydro-2H-1λ^6-benzo[1,2,4]thiadiazin-3-one]	4.5 nM		
O=C1N(Cc2ccccc2)c2cc(Cl)cc(N3CCNCC3)c2S(=O)(=O)N1Cc1cccc(F)c1 [Example 46, 4-Benzyl-6-chloro-2-(3-fluoro-benzyl)-1,1-dioxo-8-piperazin-1-yl-1,4-dihydro-2H-1λ^6-benzo[1,2,4]thiadiazin-3-one]		154 to 155 °C	
CCCN1C(=O)N(Cc2ccccc2)c2cc(Cl)cc(N3CCNCC3)c2S1(=O)=O [Example 65, 4-Benzyl-6-chloro-2-propyl-1,1-dioxo-8-piperazin-1-yl-1,4-dihydro-2H-1λ^6-benzo[1,2,4]thiadiazin-3-one]		148 to 150 °C	
CCCCCCCCCCN1C(=O)N(Cc2ccccc2)c2cc(Cl)cc(N3CCNCC3)c2S1(=O)=O [Example 67, 4-Benzyl-6-chloro-2-decyl-1,1-dioxo-8-piperazin-1-yl-1,4-dihydro-2H-1λ^6-benzo[1,2,4]thiadiazin-3-one]	3 nM		
O=C1N(Cc2ccccc2)c2cc(Cl)cc(N3CCN4CCC[C@@H]4C3)c2S(=O)(=O)N1Cc1ccccc1Cl [Example 74, 4-Benzyl-6-chloro-2-(2-chloro-benzyl)-8-[(6R)-1,4-diazabicyclo[4.3.0]non-4-yl]-1,1-dioxo-1,4-dihydro-2H-1λ^6-benzo[1,2,4]thiadiazin-3-one]		114 to 116 °C	

Reference: patent US20100035866A1, “NOVEL SUBSTITUTED-1, 1-DIOXO-BENZO[1,2,4]THIADIAZIN-3ONES, PREPARATION METHOD THEREOF, AND PHARMACEUTICAL COMPOSITION CONTAINING THE SAME” (KOREA RESEARCH INSTITUTE OF CHEMICAL TECHNOLOGY, priority 2006, published 2010)
